Measurements taken from patent publication US10682333B2, “Composition for inhibiting formation of SNARE complex, containing myricetin derivatives” (RESEARCH & BUSINESS FOUNDATION SUNGKYUNKWAN UNIVERSITY, priority 2015, dated 2020).
Read-outs that look alike come from different tables or passages of the source.

Experiments:
[1] = Examination of color of myricetin derivatives by degree of acylation; type: physicochemical; conditions: degree of acylation by palmitic acid
Text: In the present experimental example, whether a disadvantage of myricetin that a too dark intrinsic color thereof causes the skin to be stained can be addressed through making changes in properties using myricetin derivatives according to the present invention was examined.
As a result, it was observed that as a degree to which a hydroxyl group of myricetin was acylated by palmitic acid, i.e., the degree of acylation, increased, colors of the myricetin derivatives were changed, unlike conventional myricetin. In particular, it was observed that the myricetin derivative obtained in Example 3, in which one hydroxyl group of myricetin was acylated by palmitic acid, had yellow color, which is an intrinsic color of myricetin (see FIG. 12A), whereas the myricetin derivative obtained in Example 4, in which all hydroxyl groups of myricetin were acylated by palmitic acid, had white color (see FIG. 12B).

[2] = Solubility in canola oil and mineral oil; type: physicochemical
Procedure: In the present experimental example, in view of the fact that in Example 4, myricetin underwent various changes in properties during synthesis of a myricetin derivative, in which all hydroxyl groups of myricetin were acylated by palmitic acid, the solubilities of the myricetin derivative in an organic solvent, or in a commercially available liposoluble cosmetic, food product, or the like were measured.
In particular, the myricetin derivative was dissolved in canola oil and mineral oil at a ratio of 1 mg/l ml. The results thereof are illustrated in FIG. 13.

[3] = target: T1, SNARE complex (Syntaxin 1A-CFP, VAMP2-YFP) in PCl2 cells (UniProt P60881+P63027+Q16623); assay: In vivo (cell) SNARE function screen: FRET C and NPY release in PCl2 cells; type: cell-based
T1 construct: expressed in transfected cells
T1 sequence (Q16623 whole entry): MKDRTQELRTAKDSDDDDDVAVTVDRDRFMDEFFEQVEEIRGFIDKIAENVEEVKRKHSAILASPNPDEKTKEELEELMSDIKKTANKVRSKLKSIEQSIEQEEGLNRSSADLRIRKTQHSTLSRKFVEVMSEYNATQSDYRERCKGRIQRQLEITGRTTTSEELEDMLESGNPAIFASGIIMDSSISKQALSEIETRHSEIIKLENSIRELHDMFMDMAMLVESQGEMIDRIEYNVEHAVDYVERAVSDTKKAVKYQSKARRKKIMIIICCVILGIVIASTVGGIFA
T1 sequence (P63027 whole entry): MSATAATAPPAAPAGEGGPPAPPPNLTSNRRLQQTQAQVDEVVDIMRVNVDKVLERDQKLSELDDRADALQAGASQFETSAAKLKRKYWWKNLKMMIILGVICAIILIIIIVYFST
T1 sequence (P60881 whole entry): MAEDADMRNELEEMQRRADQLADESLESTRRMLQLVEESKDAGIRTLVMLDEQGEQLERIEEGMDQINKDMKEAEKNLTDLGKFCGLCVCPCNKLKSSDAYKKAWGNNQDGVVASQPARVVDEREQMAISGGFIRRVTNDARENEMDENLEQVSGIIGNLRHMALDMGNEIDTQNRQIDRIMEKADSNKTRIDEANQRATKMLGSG

PCl2 cells [4] = assay: [3H] norepinephrine release from PCl2 cells (liquid scintillation); type: cell-based; conditions: for inhibition of release of [3H] norepinephrine: Krebs' buffer with high K+
Procedure: The first method is as follows. […] After thorough washing, the PCl2 cells were washed four times with the culture medium for 15 minutes each. […] The medium was replaced with Krebs' buffer with high K^+, followed by culturing for 10 minutes, to collect samples. The collected samples were subjected to radiation measurement using a liquid scintillation counter.

SNARE complexes [5] = target: T2, SNARE complexes (Homo sapiens, UniProt P60880+P63027+Q16623); assay: Immunoblotting of SDS-resistant SNARE complexes, in vivo; type: cell-based; conditions: SDS-PAGE
T2 sequence (Q16623 whole entry): as the sequence (Q16623 whole entry) above
T2 sequence (P60880 whole entry): as the sequence (P60881 whole entry) above
T2 sequence (P63027 whole entry): as the sequence (P63027 whole entry) above
Text: (§1) The above characteristics were clearly confirmed by immunoblotting of SNARE complexes (see FIG. 2B). SNARE complexes are known to have SDS-resistance, and based on these characteristics, immunoblotting using SDS-PAGE is generally used to identify the formation of SNARE complexes.

[6] = Light stability under UV, color observed with the naked eye over time; type: physicochemical; conditions: UV lamp
Procedure: It was examined whether myricetin, and laricitrin and syringetin, which are naturally occurring myricetin derivatives, were denatured when exposed to UV. First, each myricetin derivative (MP, 1 mg/1.34 g), prepared by reacting myricetin (M, 1 mg/1.34 g) and palmitic acid, was uniformly mixed in a commercially available sunblock cream (Kolmar Korea, NoTS UV protection sunscreen cream, 1.34 g), and the mixture was applied on a cover glass, followed by irradiation for 24 hours with UV having an intensity of 253.7 nM using a UV lamp.

PCl2 cells [7] = assay: Intracellular bioconversion into myricetin in PCl2 cells (HPLC); type: in vitro ADME; conditions: within 1 hour
Procedure: A rate of bioconversion of the myricetin derivative prepared by acylation with acetic acid into myricetin in vivo was determined.
After the cells were completely washed, the cells were treated with trypsin to collect trypsin-attached cells, and trypsin was removed therefrom to obtain only pure cells. The cells were suspended in 100 μl of tetrahydrofuran, followed by disruption through sonication, and then only tetrahydrofuran in which materials in the cells were lysed was collected. Subsequently, only myricetin in the recovered purified liquid was analyzed by high-performance liquid chromatography (HPLC) to examine whether the myricetin derivative prepared by acylation using acetic acid was converted into myricetin, and the results thereof are illustrated in FIG. 15.

[8] = Light stability under UV, DMSO solution mixed with zinc oxide; type: physicochemical; conditions: 1 mg/ml DMSO with zinc oxide, UV 2 hours
Procedure: First, 1 mg of each of myricetin and the myricetin derivatives were dissolved in 1 ml of dimethyl sulfoxide (DMSO), followed by mixing with zinc oxide having high reactivity with a hydroxyl group of myricetin. The resulting mixed solution was applied, as 100 μl drops, on 3M paper, and irradiated for 2 hours with UV light having an intensity of 253.7 nM using a UV lamp. As negative controls, untreated DMSO and a mixed solution of untreated DMSO and zinc oxide were used.

[9] = target: SNARE-mediated membrane fusion (Homo sapiens, UniProt P60880+P63027+Q16623); assay: In vitro membrane fusion by FRET on dye-labelled lipid bilayer membrane; type: biochemical; conditions: artificial lipid bilayer membrane
Sequence of SNARE-mediated membrane fusion (Q16623 whole entry, the tested form may be a part): as the sequence (Q16623 whole entry) above
Sequence of SNARE-mediated membrane fusion (P60880 whole entry, the tested form may be a part): as the sequence (P60881 whole entry) above
Sequence of SNARE-mediated membrane fusion (P63027 whole entry, the tested form may be a part): as the sequence (P63027 whole entry) above

SNARE complexes [10] = target: T2, SNARE complexes; assay: Immunoblotting of SDS-resistant SNARE complexes, in vitro; type: biochemical; conditions: SDS-PAGE
Text: as §1

Compound	in vivo functions (FRET C, NPY release) [3]	inhibition of release of [3H] norepinephrine (PCl2 cells [4])	formation of SNARE complexes in vivo (SNARE complexes [5])	color change on UV irradiation compared to myricetin [6]	time after UV irradiation at which color turned brown [6] [min]	also measured
CCCCCCCCCCCCCCCC(=O)Oc1cc(OC(=O)CCCCCCCCCCCCCCC)c2c(=O)c(OC(=O)CCCCCCCCCCCCCCC)c(-c3cc(OC(=O)CCCCCCCCCCCCCCC)c(OC(=O)CCCCCCCCCCCCCCC)c(OC(=O)CCCCCCCCCCCCCCC)c3)oc2c1 [MP]						color of the substance [1]: white color; solubility in canola oil [2]: liposoluble; solubility in mineral oil [2]: liposoluble
CC(=O)Oc1cc(OC(C)=O)c2c(=O)c(OC(C)=O)c(-c3cc(OC(C)=O)c(OC(C)=O)c(OC(C)=O)c3)oc2c1 [MA]		comparable or slightly better activity				fraction bioconverted into myricetin (PCl2 cells [7]): 3%
COc1cc(-c2oc3cc(O)cc(O)c3c(=O)c2O)cc(OC)c1O [syringetin]			decreasing tendency only in vivo	did not show clear color changes	240	
O=c1c(O)c(-c2cc(O)c(O)c(O)c2)oc2cc(O)cc(O)c12 [myricetin]		concentration-dependent manner	decreasing tendency		5	color change on UV exposure [8]: color changes over time; in vivo functions (FRET C, NPY release) ([3]; PCl2 cells): ≤ 40 % of the control; in vitro functions (membrane fusion) [9]: ≤ 40 % of the control; solubility in canola oil ([2]; 1 mg/1 ml): insoluble; solubility in mineral oil ([2]; 1 mg/1 ml): insoluble; time after UV irradiation at which color turned dark brown (complete oxidation) [6]: 30 min; formation of SNARE complexes in vitro (SNARE complexes [10]): decreasing tendency

Now from value to compound, other results behind:

in vivo functions (FRET C, NPY release) [3]	Compound	inhibition of release of [3H] norepinephrine (PCl2 cells [4])	formation of SNARE complexes in vivo (SNARE complexes [5])	color change on UV irradiation compared to myricetin [6]	time after UV irradiation at which color turned brown [6] [min]	also measured
40-45 % of the control	COc1cc(-c2oc3cc(O)cc(O)c3c(=O)c2O)cc(O)c1O [laricitrin]	highest reactivity	decreasing tendency only in vivo	did not show clear color changes	60	activity of inhibiting [3H] norepinephrine release compared to conventional myricetin (PCl2 cells [4]; 20 μM): at least two-fold improved activity
40-45 % of the control	COc1cc(O)c2c(=O)c(OC)c(-c3cc(OC)c(OC)c(OC)c3)oc2c1 [combretol]		decreasing tendency only in vivo			
